The source of these data is US8912188B2, “Substituted quinoxaline carboxylic acids for the inhibition of PASK” (BioEnergenix, LLC, priority 2011, dated 2014).

Data set [1] addresses T1, PASK (UniProt #Q96RG2; human recombinant N-terminal GST tagged construct, residues 879-1323) (Homo sapiens, UniProt Q96RG2).
T1 construct: human recombinant N-terminal GST tagged construct, residues 879-1323; GST (N); host or cells: insect cells
Description: PASK ATP Radiochemical Assay. The format is biochemical. The conditions noted are these: 33P-ATP, Myelin Basic Protein substrate, 120 min at room temperature, read-out: IC50 Kinase Domain. Here is the method:
Biochemical Assay for hPASK Activity
PASK ATP Radiochemical Assay
Test compounds in DMSO are then added and the mixture, followed by delivery of ^33P-ATP (specific activity 0.01 μCi/μl final) to initiate the reaction. […] The entire reaction mixture is washed through onto a P81 Phosphocellulose paper and washed three times for 10 minutes in 75 mM phosphoric acid and once in methanol prior to drying and scintillation counting.

The target of data set [2] is T2, PASK (Invitrogen) (Homo sapiens, UniProt Q96RG2).
T2 construct: IC50 Kinase Domain; purchased Invitrogen
T2 sequence (Q96RG2 999-1251 limits assumed): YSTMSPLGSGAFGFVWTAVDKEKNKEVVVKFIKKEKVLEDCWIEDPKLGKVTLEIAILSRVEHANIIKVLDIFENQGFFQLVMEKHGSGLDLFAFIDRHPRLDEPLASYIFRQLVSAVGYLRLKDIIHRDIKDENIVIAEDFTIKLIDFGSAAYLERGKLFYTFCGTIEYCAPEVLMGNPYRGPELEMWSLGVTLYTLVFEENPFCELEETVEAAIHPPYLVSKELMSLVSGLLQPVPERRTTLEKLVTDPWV
Description: PAS Kinase FRET Assay. The conditions noted are these: PAS kinase TR-FRET assay (665 nm/615 nm), 2 hours at 25° C.; read-out: IC50 Kinase Domain. Format: biochemical.

Data set [3] in a line: In vivo pharmacokinetics in the Sprague Dawley rat. As to conditions: for bioavailability / half-life: blood; for bioavailability: po, 10 mg/kg; for bioavailability / half-life / volume of distribution: summary of Table 3; for t1/2 (half-life): intravenous 3 mg/kg (1 mg/kg for Example 105), oral 10 mg/kg; for Cl (clearance) / Vss (volume of distribution): intravenous via tail vein, 3 mg/kg (1 mg/kg for Example 105); for Tmax (time to maximum blood concentration after an oral dose): oral gavage 10 mg/kg; for F (oral bioavailability): oral gavage 10 mg/kg vs intravenous 3 mg/kg (1 mg/kg for Example 105). Here is the method: Pharmacokinetics of a PASK Inhibitor
The test compounds were formulated in polyethylene glycol and beta cyclodextrin in water for administration at 1 mg/kg for Example 105, and at 3 mg/kg for Example 14, 15, and 18 for intravenous administration via the tail vein and 10 mg/kg for oral administration by gavage. Blood samples were collected at 0.083, 0.25, 0.5, 1, 2, 4, 6, 8, and 24 hours and the samples were analyzed for test compounds content using LC/MS/MS. The data was submitted to pharmacokinetic analysis using WinNonLin software and the observed and calculated pharmacokinetic parameters are shown in Table 3 for each compound.

Each structure is given as a SMILES string.

T1 sequence (Q96RG2 879-1323, stated change not applied): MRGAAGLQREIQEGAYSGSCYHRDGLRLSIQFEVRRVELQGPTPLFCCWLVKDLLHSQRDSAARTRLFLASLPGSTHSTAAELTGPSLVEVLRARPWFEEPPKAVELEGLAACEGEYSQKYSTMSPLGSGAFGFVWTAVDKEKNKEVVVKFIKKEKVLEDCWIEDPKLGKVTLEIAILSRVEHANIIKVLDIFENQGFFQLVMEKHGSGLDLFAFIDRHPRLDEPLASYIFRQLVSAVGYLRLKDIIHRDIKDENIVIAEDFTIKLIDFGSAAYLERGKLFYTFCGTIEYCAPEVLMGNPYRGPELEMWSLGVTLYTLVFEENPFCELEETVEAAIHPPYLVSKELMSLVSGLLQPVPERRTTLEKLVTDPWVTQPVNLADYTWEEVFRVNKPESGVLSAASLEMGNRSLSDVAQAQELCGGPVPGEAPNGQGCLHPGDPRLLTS

In the case of `C[C@H]1CCCN1c1nc2cc(C(=O)O)ccc2nc1-c1cc2ccccc2o1` [Example 14, (S)-2-(Benzofuran-2-yl)-3-(2-methylpyrrolidin-1-yl)quinoxaline-6-carboxylic acid], in data set [1], the IC50 is under 10 µM. Also, the IC50 in data set [2] was under 10 µM. Further, in data set [3], the bioavailability was at least 63%, the half-life is at least 3 h, the “t1/2 (half-life)” value is 3.68 h and the “Cl (clearance)” value was 1.72 mL/min/kg. Besides, in data set [3], the “Vss (volume of distribution)” value was found to be 0.362 L/kg, the “Tmax (time to maximum blood concentration after an oral dose)” value was determined as 6 h, the “F (oral bioavailability)” value is 63.4% and the volume of distribution entry is reported as “low”.
For the compound `CC(C)N(C)c1nc2cc(C(=O)O)ccc2nc1-c1cc2cc(F)ccc2o1` [Example 18, 2-(5-Fluorobenzofuran-2-yl)-3-(isopropyl(methyl)amino)quinoxaline-6-carboxylic acid], the IC50 in data set [1] is under 10 µM. For the same compound, the IC50 in data set [2] is under 10 µM. In data set [3], the bioavailability was at least 63%, the half-life was at least 3 h, the “t1/2 (half-life)” value amounted to 7.72 h and the “Cl (clearance)” value turned out to be 1.33 mL/min/kg. In addition, in data set [3], the “Vss (volume of distribution)” value stood at 0.366 L/kg, the “Tmax (time to maximum blood concentration after an oral dose)” value is 8 h, the “F (oral bioavailability)” value is on record as 74.8% and the volume of distribution entry is recorded as “low”.

The IC50 is the concentration needed to halve the response being measured. A word on the bioavailability: it is dose-corrected exposure relative to a reference, in per cent. Low values mean little systemic uptake, high ones much systemic uptake. A word on the half-life: it is the time needed for the level to fall by half in the phase considered.
